According to US11370775B2, “Substituted benzimidazole derivatives as D-amino acid oxidase (DAAO) inhibitors” (NATIONAL TAIWAN UNIVERSITY, priority 2016, dated 2022):

Assays:
[1] = biological target: T1, DAO in SK-N-SH neuroblastoma cells (Homo sapiens, UniProt P14920); assay: Cell-based DAO assay in SK-N-SH cells; set-up: key to Relative DAO activity normalize to DMSO at Final Conc. 100 uM / Relative DAO activity normalize to DMSO at Final Conc. 10 uM: fraction of DMSO-control DAO activity (1 = DMSO); conditions: SK-N-SH 1.25*10^5 cells/well, drug treated for 3.5 hr; for IC50: 50 mM D-serine
T1 construct: endogenous in cells; host or cells: SK-N-SH neuroblastoma cells (ATCC)
T1 sequence (P14920 whole entry): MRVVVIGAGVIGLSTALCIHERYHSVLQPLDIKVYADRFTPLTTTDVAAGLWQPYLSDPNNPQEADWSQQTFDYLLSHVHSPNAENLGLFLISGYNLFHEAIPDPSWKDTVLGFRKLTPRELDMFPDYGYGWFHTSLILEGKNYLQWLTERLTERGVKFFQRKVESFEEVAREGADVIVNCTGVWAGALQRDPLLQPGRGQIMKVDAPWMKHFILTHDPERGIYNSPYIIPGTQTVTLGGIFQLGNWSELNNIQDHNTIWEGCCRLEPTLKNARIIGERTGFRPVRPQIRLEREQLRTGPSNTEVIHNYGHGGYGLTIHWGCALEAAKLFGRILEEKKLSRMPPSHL
Description: The SK-N-SH neuroblastoma cell line was purchased from American Type Culture Collection (ATCC). It was cultured in MEM media (Invitrogen/GIBCO, Rockville, Md.) supplemented with 10% fetal bovine serum, 1×NEAA (Invitrogen/GIBCO) at 37° C. with 5% CO2 in a humidified atmosphere. Cells were trypsinized and plated into a black 96-well plate (NUNC No. 237108) at a density of 125,000 cells/well in 50 μl before cell-based DAO assay.
The cellular DAO activity assay was using a method modified according to the report of Brandish et al. (Brandish, P. E., et al., A cell-based ultra-high-throughput screening assay for identifying inhibitors of D-amino acid oxidase. J Biomol Screen, 2006. 11(5): p. 481-7). SK-N-SH cells were suspended in assay buffers of HANKS buffer solution (Invitrogen/GIBCO No. 14025-092) with 20 mM HEPES. D-serine of (final concentration 50 mM) was added in each well as the substrate for DAO enzyme. The Amplex Red Hydrogen Peroxide/Proxidase Assay Kit (Molecular Probes/Invitrogen, cat. A22188) was used to measure H2O2 production which diffused across the cell membrane into the assay medium after DAO reaction. After seeding cells into black 96-well plate (Nunc No. 237108, Denmark), 50 μl of SK-N-SH cells (125,000 cells/well) was mixed with 50 μl drug solution (2.5 fold of interesting final concentration) and incubate at 37° C. with 5% CO2 in a humidified atmosphere for 30 minutes. After 30 minutes later, 25 μl of a 5 fold mixture containing D-serine, horseradish peroxidase (HRP), and Amplex Red was added into wells containing 100 μl of cell-drugs mixture and incubated at 37° C. with 5% CO2 in a humidified atmosphere for 3 hours. The final concentration of DMSO is below 1%. The fluorescence signal was then detected in SpectraMax M2e microplate reader (Molecular Devices, USA) with excitation at 544 nm and emission at 590 nm. The optimized assay buffer contained a final concentration of 50 mM D-serine, 0.625 units HRP, and 50 μM Amplex Red in a 125 μl assay volume.

[2] = biological target: T2, porcine kidney DAO (Sus scrofa, UniProt P00371); assay: pkDAO enzymatic assay (porcine kidney DAO IC50 assay); format: biochemical; conditions: D-alanine substrate, pH 8.3, 37° C., without FAD
T2 construct: purchased Sigma-Aldrich; host or cells: porcine kidney
T2 sequence (P00371 whole entry): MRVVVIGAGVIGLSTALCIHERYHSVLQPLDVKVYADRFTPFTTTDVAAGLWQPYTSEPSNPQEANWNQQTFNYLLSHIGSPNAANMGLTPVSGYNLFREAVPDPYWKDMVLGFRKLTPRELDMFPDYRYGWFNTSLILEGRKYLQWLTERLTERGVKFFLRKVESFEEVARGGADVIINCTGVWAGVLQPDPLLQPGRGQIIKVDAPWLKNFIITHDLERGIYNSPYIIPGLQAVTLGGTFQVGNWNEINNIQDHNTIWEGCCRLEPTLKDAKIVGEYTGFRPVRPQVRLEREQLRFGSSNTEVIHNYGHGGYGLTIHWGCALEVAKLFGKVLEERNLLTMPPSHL
Description: The DAAO enzymatic activity assay was modified according to the report of Oguri et al (Oguri, S., Screening of d-amino acid oxidase inhibitor by a new multi-assay method. Food chemistry 2007, 100 (2), 616). The DAAO activity was measured by using substrate D-alanine reaction produced hydrogen peroxide (H2O2) to further react with 3-(4-hydroxyphenyl) propionic acid (HPPA). The HPPA were oxidized by H2O2 and peroxidase to become the fluorogenic dimer which was measured to represent the activity of DAAO.
For porcine kidney DAO IC50 assay, the DAO substrate was prepared in 50 mM D-alanine (dissolved in 0.2 M Tris-HCl buffer, pH 8.3). A 100 μl of D-alanine solution was mixed with 4 μl (in 100% dimethyl sulfoxide, DMSO) of different concentrations of candidate compounds shown in tables below ranging from 48.83 μM, 97.66 μM, 195.31 μM, 390.63 μM, 781.25 μM, 1.56 mM, 3.13 mM, 6.25 mM, 12.50 mM, 25.00 mM, and 50.00 mM, with a final DMSO concentration of 0.167% in each reaction concentration. 10 μl of D-alanine and candidate compound mixture was incubated with 220 μl of Reaction Master Mix in black 96 well plate at 37° C. for 5 minutes. The Reaction Master Mix contained 110 μl of 5 U/mL porcine kidney DAO (Sigma-Aldrich, USA) solution (dissolved with 0.2 M Tris-HCl buffer, pH 8.3), 1.1 mL of 15 U/mL peroxidase solution (dissolved with 0.2 M Tris-HCl buffer, pH 8.3), 1.1 mL of 20 mM HPPA solution (dissolved with 0.2 M Tris-HCl buffer, pH 8.3), and 22 ml of 2 M Tris-HCl buffer (pH 8.3) for 110 reaction assays.
Fluorescence intensity (Fs) was measured at 405 nm by irradiation excitation at 320 nm. The higher the DAO enzymatic activity was, the higher the fluorescence intensity. The fluorometric inhibition indicator (Fi) was obtained from the following equation: Fi=(Fs-FDrug)/(FDMSO), where the fluorescent drug blank (FDrug) was measured in the drug mixture solution (using 0.2 M Tris HCl buffer, pH 8.3, without D-alanine). A DMSO blank (FDMSO) was measured under a 100% DMSO solution.
Although FAD is generally included in the reaction mixture in the D-amino acid oxidase assay since it easily dissociates from the holoenzyme, the present method was performed without FAD. The inhibitory effect of DAO inhibitors was compared by using inhibitory concentrations leading to 50% inhibition of DAAO activity (IC50). The IC50 values were calculated by nonlinear regression model using GraphPad Prism, version 5(GraphPad Software, Inc., La Jolla, Calif.).

SMILES | Relative DAO activity normalize to DMSO at Final Conc. 10 uM [1] | Relative DAO activity normalize to DMSO at Final Conc. 100 uM [1] | IC50 [1] [µM] | IC50 [2] [µM]
O=c1[nH]oc2ccc(Cl)cc12 [CBIO, reference compound] | 1.00 | 0.83 | 392 | 0.583
COc1ccc(C(=O)Oc2ccc3[nH]c([S+]([O-])Cc4ncc(C)c(OC)c4C)nc3c2)cc1 (stereo not drawn) [compound 11020, 2-(((4-methoxy-3,5-dimethylpyridin-2-yl)methyl)sulfinyl)-1H-benzo[d]imidazol-5-yl 4-methoxybenzoate] | 0.97 | 0.67 | 221 | 10.4
COc1c(C)cnc(C[S+]([O-])c2nc3cc(OC(=O)c4ccco4)ccc3[nH]2)c1C (stereo not drawn) [compound 12122, 2-(((4-methoxy-3,5-dimethylpyridin-2-yl)methyl)sulfinyl)-1H-benzo[d]imidazol-5-yl furan-2-carboxylate] | 0.98 | 0.57 | 147 | 12.5
C/C=C\C(=O)Oc1ccc2[nH]c([S+]([O-])Cc3ncc(C)c(OC)c3C)nc2c1 (stereo not drawn) [compound 12124, 2-(((4-methoxy-3,5-dimethylpyridin-2-yl)methyl)sulfinyl)-1H-benzo[d]imidazol-5-yl (Z)-but-2-enoate] | 0.97 | 0.36 | 108 | 11.2
COc1c(C)cnc(C[S+]([O-])c2nc3cc(OC(=O)C=C(C)C)ccc3[nH]2)c1C (stereo not drawn) [compound 12125, 2-(((4-methoxy-3,5-dimethylpyridin-2-yl)methyl)sulfinyl)-1H-benzo[d]imidazol-5-yl 3-methylbut-2-enoate] | 0.80 | 0.50 | 122 | 13.3
COc1c(C)cnc(C[S+]([O-])c2nc3cc(OP(=O)(Oc4ccccc4)Oc4ccccc4)ccc3[nH]2)c1C (stereo not drawn) [compound 13084, 2-(((4-methoxy-3,5-dimethylpyridin-2-yl)methyl)sulfinyl)-1H-benzo[d]imidazol-5-yl diphenyl phosphate] | 0.71 | 0.49 | 34.9 | 181
COc1c(C)cnc(CN(Cc2ncc(C)c(OC)c2C)c2nc3cc(C(=O)O)ccc3n2CCC2=CCCCC2)c1C [compound 21105, 2-(bis((4-methoxy-3,5-dimethylpyridin-2-yl)methyl)amino)-1-(2-(cyclohex-1-en-1-yl)ethyl)-1H-benzo[d]imidazole-5-carboxylic acid] | 0.89 | 0.58 | 219 | 301
COC(=O)c1ccc2c(c1)N=C(NCc1ncc(C)c(OC)c1C)N(CCC1=CCCCC1)C2 [compound 21106, Methyl 3-(2-(cyclohex-1-en-1-yl)ethyl)-2-(((4-methoxy-3,5-dimethylpyridin-2-yl)methyl)amino)-3,4-dihydroquinazoline-7-carboxylate] | 1.02 | 0.77 | 478 | 488
COc1c(C)cnc(C[S+]([O-])c2nc3cc(OC(C)=O)ccc3[nH]2)c1C (stereo not drawn) [compound 21122, 2-(((4-methoxy-3,5-dimethylpyridin-2-yl)methyl)sulfinyl)-1H-benzo[d]imidazol-5-yl acetate] | 0.99 | 0.50 | 149 | 21.1
COc1c(C)cnc(C[S+]([O-])c2nc3cc(OC(=O)OC(C)(C)C)ccc3[nH]2)c1C (stereo not drawn) [compound 21132, tert-butyl (2-(((4-methoxy-3,5-dimethylpyridin-2-yl)methyl)sulfinyl)-1H-benzo[d]imidazol-5-yl)carbonate] | 0.94 | 0.61 | 175 | 64.2
CCCCC(=O)Oc1ccc2[nH]c([S+]([O-])Cc3ncc(C)c(OC)c3C)nc2c1 (stereo not drawn) [compound 25016, 2-(((4-methoxy-3,5-dimethylpyridin-2-yl)methyl)sulfinyl)-1H-benzo[d]imidazol-5-yl pentanoate] | 1.00 | 0.62 | 188 | 13.4
COc1c(C)cnc(C[S+]([O-])c2nc3cc(OC(=O)C4CCC4)ccc3[nH]2)c1C (stereo not drawn) [compound 25027, 2-(((4-methoxy-3,5-dimethylpyridin-2-yl)methyl)sulfinyl)-1H-benzo[d]imidazol-5-yl cyclobutanecarboxylate] | 1.15 | 0.69 | 240 | 21
COC(=O)c1ccc2c(c1)N=C(N(Cc1ncc(C)c(OC)c1C)Cc1ncc(C)c(OC)c1C)N(Cc1ccco1)C2 [compound 26072, Methyl 2-(bis((4-methoxy-3,5-dimethylpyridin-2-yl)methyl)amino)-3-(furan-2-ylmethyl)-3,4-dihydroquinazoline-7-carboxylate] | 0.87 | 0.74 | 393 | 236
COc1c(C)cnc(C[S+]([O-])c2nc3cc(OC(=O)C4CC4)ccc3[nH]2)c1C (stereo not drawn) [compound 28092, 2-(((4-methoxy-3,5-dimethylpyridin-2-yl)methyl)sulfinyl)-1H-benzo[d]imidazol-5-yl cyclopropanecarboxylate] | 0.94 | 0.58 | 136 | 46.7
COc1c(C)cnc(C[S+]([O-])c2nc3cc(OC(=O)Cc4ccccc4)ccc3[nH]2)c1C (stereo not drawn) [compound 28094, 2-(((4-methoxy-3,5-dimethylpyridin-2-yl)methyl)sulfinyl)-1H-benzo[d]imidazol-5-yl 2-phenylacetate] | 1.10 | 0.58 | 121 | 21.1
